Source: patent publication US20240124515A1, “ORALLY ACTIVE LEUKEMIA INHIBITORY FACTOR (LIF) ANTAGONISTS FOR THE TREATMENT OF CANCER” (Evestra, Inc., priority 2021, published 2024)
Like-named read-outs stand apart in the source and are kept apart here.

What was measured:
LIF/LIFR = settings: background; cited from earlier work
[1] = PK study, oral bioavailability in rats; format: in vivo, Sprague Dawley rats; settings: for bioavailability: Sprague Dawley, rat, plasma, po
Source text: For example, the oral bioavailability can be determined by the formula (1):
F=100*(AUCpo*Div/AUCiv*Dpo) (1)
where: F is bioavailability; AUCpo is dose-corrected area under curve of non-intravenous oral drug; Div is the intravenous dose; AUCiv is the area under the curve intravenous; and Dpo is the oral dose.

other steroid receptors = assay: Binding to other steroid receptors; settings: Table 1
[2] = rodent pharmacokinetic (PK) studies
xenograft and PDX models = settings: background; cited from earlier work
MCF7/LIF cells = assay: Effect on MCF7 cells with artificial LIF expression (FIG. 1); format: cell-based; settings: artificial expression of LIF in MCF7 cells
Procedure: (§1) The artificial expression of LIF in MCF7 cells (MCF7/LIF) made those cells vulnerable to LIF inhibitors (FIG. 1) such as compound 5 (EC905) and compound 13 (EC915)
(§2) In order to identify the mechanism of action of EC914, we checked cytotoxicity of these compounds in various cells lines and derived IC50 values. Briefly, 5×10^3 cells were seeded in 96-well plates and incubated with compounds (0.0001-10 μmol/L) or dimethyl sulfoxide (DMSO; 0.02% v/v) for 24, 48, and 72 hours at 37° C. and cell viability was measured using a Fluoroscan plate reader (Nair et al. Estrogen receptor-β activation in combination with letrozole blocks the growth of breast cancer tumors resistant to letrozole therapy. Steroids. 2011 July; 76(8):792-6).

LIFR = target: T1, LIFR (Homo sapiens, UniProt P42702); assay: Microscale thermophoresis (MST) binding to LIFR
T1 sequence (P42702 45-1097): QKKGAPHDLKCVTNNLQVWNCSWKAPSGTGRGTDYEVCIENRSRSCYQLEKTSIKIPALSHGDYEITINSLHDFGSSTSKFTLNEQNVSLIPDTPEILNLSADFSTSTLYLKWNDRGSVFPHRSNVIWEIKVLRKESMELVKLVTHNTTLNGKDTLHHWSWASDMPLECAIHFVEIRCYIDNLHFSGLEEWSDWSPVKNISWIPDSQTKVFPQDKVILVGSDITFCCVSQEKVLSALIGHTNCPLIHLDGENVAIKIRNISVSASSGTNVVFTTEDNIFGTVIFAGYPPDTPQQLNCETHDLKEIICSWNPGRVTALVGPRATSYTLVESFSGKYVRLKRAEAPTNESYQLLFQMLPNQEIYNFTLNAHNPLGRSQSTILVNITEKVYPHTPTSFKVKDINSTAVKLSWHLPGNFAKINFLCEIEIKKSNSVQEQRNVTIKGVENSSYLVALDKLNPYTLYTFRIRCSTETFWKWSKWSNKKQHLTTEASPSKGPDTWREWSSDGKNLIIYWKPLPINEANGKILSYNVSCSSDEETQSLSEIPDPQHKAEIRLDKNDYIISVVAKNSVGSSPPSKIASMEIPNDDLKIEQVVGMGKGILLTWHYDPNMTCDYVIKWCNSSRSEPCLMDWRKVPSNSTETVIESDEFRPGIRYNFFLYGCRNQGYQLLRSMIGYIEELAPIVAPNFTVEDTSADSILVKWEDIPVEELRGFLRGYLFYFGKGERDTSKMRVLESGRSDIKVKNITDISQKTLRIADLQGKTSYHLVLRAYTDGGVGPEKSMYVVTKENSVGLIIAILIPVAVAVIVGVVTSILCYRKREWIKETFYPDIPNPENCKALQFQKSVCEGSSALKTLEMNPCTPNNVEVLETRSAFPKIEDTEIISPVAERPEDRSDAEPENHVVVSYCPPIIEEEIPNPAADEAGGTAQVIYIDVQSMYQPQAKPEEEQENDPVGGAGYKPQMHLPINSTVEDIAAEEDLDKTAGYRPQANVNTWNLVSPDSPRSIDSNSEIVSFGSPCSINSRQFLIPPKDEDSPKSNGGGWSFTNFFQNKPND
Procedure: Binding of EC914 to LIFR was measured by microscale thermophoresis (MST).

pSTAT3 = assay: Western blot of STAT3 phosphorylation (FIG. 2); format: cell-based
Procedure: It is believed that EC914 binds directly to LIFR and blocks LIF signaling. Binding of EC914 to LIFR was measured by microscale thermophoresis (MST). The binding kD was 174 nM (FIG. 3).
In brief, MDA-MB-231/BT549 cells were treated with compounds for 3 days at different concentrations (10, 100 nM) and cell lysates were separated by 8% SDS-PAGE and transferred to polyvinylidene difluoride membranes. Membranes were then incubated with primary antibodies including phosphorylated and/or total pSTAT3. After overnight incubation at 4° C., membranes were incubated with secondary antibodies. Immunoreactive bands were then visualized by the enhanced chemiluminescence (ECL) detection system (GE healthcare.

[3] = tested on: NE-1.8 (neuro endocrine-like) prostate cancer cell line; assay: Calcein AM fluorescent dye-based cell viability assay, NE-1.8 cells; settings: 96 hours, 50 nM to 250 nm EC914
Procedure: In one test, NE-1.8 (neuro endocrine-like) prostate cancer cell line was treated with compound 12 (EC914).
After 96 hours, the cell viability was observed using Calcein AM fluorescent dye-based cell viability assay. More than 50-80% of cell growth inhibition was observed from 50 nM to 250 nm concentration of EC914 compared to vehicle control. Similar growth inhibition trend was observed upon treatment with LIF inhibitor on the C42B prostate cancer cell line at 48 hrs.

[4] = tested on: 22Rv1 and cE2 mouse syngeneic cells; assay: Prostate cancer tumor models in vivo (FIG. 9); settings: 22Rv1 and cE2 subcutaneous tumors in athymic nude mice
Procedure: 22Rv1 and cE2 mouse syngeneic cells were subcutaneously implanted in athymic nude mice (0.75×10^6/mice). Two weeks after post-implantation, mice were randomized into four groups. Group 1 mice received saline, whereas group 2 and group 3 mice received EC 914 (every alternative day) or DTX (once in 3 days) alone. Finally, group 4 mice were administered with both EC 914 and DTX. […] Based on this rationale, it is believed that LIFR is overexpressed in response to DTX treatment and induces resistance, and enriches the CSC population in metastatic CRPC.

[5] = tested on: MDR1, CD44, Sox2, ALDH1, and CD133; assay: Western blot of CSC marker expression in PCa (FIG. 7C); format: cell-based
Procedure: (§3) In this study, the cellular signaling disrupted upon EC 914 treatment was analyzed. […] Thus, cancer stemness enrichment upon DTX treatment might be abolished by LIF/LIFR signaling disruption through EC914 inhibitor.

[6] = tested on: triple negative breast cancer cells; assay: Antiproliferative activity in TNBC cells; format: cell-based
Procedure: as §1, §2

[7] = tested on: murine and human PCa cells; assay: Viability and Incucyte Cytotox assay of PCa cells (FIG. 6); format: cell-based
Source text: FIG. 6A depicts a line graph showing significant decline in the viability of murine and human PCa cells upon treatment with EC914 and/or Docetaxel.

[8] = tested on: STAT1, STAT3, AKT, ERK, Myc, and tCyclinD1 proteins; assay: Western blot of cellular signaling in PCa cells (FIG. 7A); format: cell-based; settings: no change in total proteins
Procedure: as §3

MDA-MB-231 xenograft = assay: MDA-MB-231 tumor xenograft study; format: in vivo, athymic nude mice; settings: TNBC mouse xenograft model, initial 3 doses of 10 mg/kg, oral, FIG. 5
Procedure: Uniform suspensions of human breast cancer MDA-MB-231 cells (2×10^6) in 100 μL (0.02 carboxymethyl cellulose in phosphate buffered saline) were injected subcutaneously into the right and left flanks of 4- to 5-week-old female athymic nude mice (Charles River Laboratories). After 10 days, when the tumor […] reaches 100 mm^3, the mice were randomly allocated to 3 groups of each containing 6 animals. Group 1 served as the untreated control, groups 2 received EC914 orally at 10 mg/kg daily for 3 doses. All drug was formulated in a vehicle containing 58.5% Labrasol ALF, 22.5% Labrafil M, 1944 CS, 9% Capryol 90 and 10% water q.s. Tumors were allowed to reach palpability before drug intervention. Tumor size was measured every 3 days using digital Vernier Calipers and tumor volume was calculated using the ellipsoid formula [D×(d2)]/2, where D is the large diameter of the tumor and d represents the small diameter. On day 19, the mice were euthanized, and tumors were harvested for protein and gene expression studies since the control tumors reached maximum allowable size as the IACUC regulations (See FIG. 5).

HESE cells = assay: Caspase-3/7 apoptosis assay (Caspase-Glo); format: cell-based; settings: Caspase-3/7 activity
Procedure: Caspase-3/7 activity in HESE cells was measured using Caspase-Glo assay kit (Promega), as described before (Bhaskaran et al, 2013). Briefly, cells were homogenized in homogenization buffer (25 mmol/L HEPES, pH 7.5, 5 mmol/L MgCl2, and 1 mmol/L EGTA), protease inhibitors, and the homogenate was centrifuged at 13,000 rpm at 4° C. for 15 minutes. To 10 μL of the supernatant containing protein was added to an equal volume of the assay reagent and incubated at room temperature for 2 hours. The luminescence was measured using a luminometer.

## C#CC(F)(F)[C@]1(O)CC[C@H]2[C@@H]3CCC4=CC(=O)CCC4=C3[C@@H](c3ccc(C4CC4)cc3)C[C@@]21C [EC330]
LIF/LIFR
  LIF/LIFR mediated proliferation and tumor growth: efficiently inhibited

## C#CC(F)(F)[C@]1(O)CC[C@H]2[C@@H]3CCC4=CC(=O)CCC4=C3[C@@H](c3ccc(-c4c(C)cc(C)cc4C)cc3)C[C@@]21C [EC359, reference compound]
[1]; Table 1
  oral bioavailability: 16%
Other steroid receptors
  Binding to other steroid receptors: Low binding to PR
[2]
  oral bioavailability: 16%
Xenograft and PDX models
  efficacy in preclinical xenograft and PDX models: good efficacy

## C#CC(F)(F)[C@]1(O)CCC2C3CCC4=CC(=O)CCC4=C3[C@@H](c3cccc(-c4cccnc4)c3)C[C@@]21C (stereo partly shown) [EC905]
MCF7/LIF cells
  vulnerability of MCF7/LIF cells to LIF inhibitors: vulnerable

## C#CC(F)(F)[C@]1(O)CCC2C3CCC4=CC(=O)CCC4=C3[C@@H](c3cccc(C#N)c3C)C[C@@]21C (stereo partly shown) [EC914]
LIFR; MST, FIG. 3, read-out: binding kD to LIFR
  Kd: 174 nM
LIFR; Table 1, read-out: LIFR binding
  Kd: 175 nM
pSTAT3
  STAT3 phosphorylation: reduced STAT3 phosphorylation
[3]
  cell growth inhibition compared to vehicle control: 50-80%
[4]
  tumor growth: inhibit tumor growth
[5]
  key CSC marker expression (MDR1, CD44, Sox2, ALDH1, CD133): specifically decreases
[6]
  antiproliferative activity: potent antiproliferative activity
[1]; PK studies in Sprague Dawley rats, FIG. 4
  bioavailability: 87.9%
[1]; Table 1
  bioavailability: 87.9%
Other steroid receptors
  Binding to other steroid receptors: No
[7]; 22Rv1 cells, Incucyte Cytotox assay, FIG. 6B
  cytotoxicity of Docetaxel in PCa: increases cytotoxicity of Docetaxel
[7]; murine and human PCa cells, FIG. 6A
  viability of PCa cells: decreases viability
[8]
  phosphorylation of STAT1 and STAT3 and of AKT, ERK, Myc, tCyclinD1: decreased
MDA-MB-231 xenograft
  tumor burden: reduced tumors burden
HESE cells
  percent of apoptosis induced: comparable to that of EC359

## C#CC(F)(F)[C@]1(O)CCC2C3CCC4=CC(=O)CCC4=C3[C@@H](c3ccc(C#N)cc3C)C[C@@]21C (stereo partly shown) [EC915]
MCF7/LIF cells
  vulnerability of MCF7/LIF cells to LIF inhibitors: vulnerable
